How the values were obtained:
E. coli ATCC 25922 [1] = format: cell-based, Escherichia coli; details: in the absence of physiological salts and serum
human red blood cells = test: Hemolytic activity assay; format: cell-based; details: at the highest peptide concentration (128 μM); human red blood cells, 37 °C 1 h; 0.1% Triton X-100 = 100%
Protocol: The collected blood of type B from healthy donor was centrifuged at 1000×g for 5 min to collect red blood cells. The red blood cells were then washed and resuspended in 10 mM PBS (pH 7.4). Fifty microliters of diluted red blood cells and an equal volume of peptide solution (2–128 µM) were incubated in a 96-well plate at 37 °C for 1 h. The red blood cell suspension treated with 0.1% Triton X-100 was used as a positive control (100% hemolysis), and untreated blood cell suspension was used as a negative control. The 96-well plate was centrifuged at 1000×g for 5 min at 4 °C, and then the supernatant was transferred to a new 96-well plate. The absorbance at OD570 was measured with a microplate reader.

E. coli ATCC 25922 [2] = format: cell-based, Escherichia coli; details: Table 3, recombinant vs synthetic LG; mean ± SD of three independent experiments
Protocol: (§1) All experiments were conducted at least three different times.

E. coli ATCC 078 = format: cell-based, Escherichia coli; details: Table 3, recombinant vs synthetic LG; mean ± SD of three independent experiments
Protocol: as §1

E. coli ATCC 25922 [3] = test: Transmission electron microscopy (TEM); format: cell-based, Escherichia coli; details: 1/2 × MIC (1 μM), 37 °C 1 h
Protocol: E. coli ATCC 25922 was cultured to the logarithmic growth phase and centrifuged to obtain the bacteria. The bacteria were resuspended twice in 0.01 M PBS (pH 7.4) and diluted to OD600 = 0.3. The rLG and bacteria were mixed to a final concentration of 1/2 × MIC (1 μM), and the bacteria without peptide were used as a control. Both samples were incubated at 37 °C for 1 h. The incubated sample was centrifuged at 2500×g for 5 min and washed three times with 0.01 M PBS. Two milliliters of 2.5% glutaraldehyde buffer was added to the bacterial pellet, and the suspension was gently blown and fixed at 4 °C overnight. The cells were washed with 0.01 M PBS and fixed in 1% osmate buffer for 1 h. Then, different concentrations of ethanol were used for gradient dehydration (50%, 70%, 85%, 95% and 100%). Finally, the sample was prepared into ultrathin sections through the process of soaking and embedding, and a Hitachi H-7650 TEM (Hitachi, Japan) was used for observation.

E. coli ATCC 25922 [4] = test: Cell wall (outer membrane) permeabilization, NPN uptake; format: cell-based, Escherichia coli; details: at low concentrations (1, 2, and 4 µM); compared with melittin
Protocol: The cell wall permeability was determined by monitoring the fluorescence release of the fluorescent dye NPN (Sigma, USA). E. coli ATCC 25922 (OD600 = 0.2) and NPN (10 µM) were incubated in 5 mM HEPES buffer (containing 5 mM glucose, pH 7.4) for 30 min. Then, 100 µL of peptides (0.5–32 µM) and an equal volume of bacteria were added to a 96-well plate. An F-4500 fluorescence spectrophotometer (Hitachi, Japan) was used to detect the fluorescence intensity of different wells at a 350 nm excitation wavelength and 420 nm emission wavelength. The peptide-free and polymyxin B-containing fluorescence values were set as negative and positive controls.

[5] = system: S. epidermidis ATCC 12228; format: cell-based, Staphylococcus epidermidis; details: Table 3, recombinant vs synthetic LG; mean ± SD of three independent experiments
Protocol: as §1

E. coli ATCC 25922 [6] = format: cell-based, Escherichia coli
Protocol: as §1
The salt ions were added to the BSA solution and configured into different final concentrations of salt ions (150 mM NaCl, 4.5 mM KCl, 6 µM NH4Cl, 8 µM ZnCl2, 1 mM MgCl2, 2 mM CaCl2, and 4 µM FeCl3) solutions. The method discribed as above was referred to determine the MIC value of rLG against E. coli ATCC 25922 in the presence of different concentrations of salt ions.

S. Typhimurium C 7731 = format: cell-based, Salmonella Typhimurium; details: Table 3, recombinant vs synthetic LG; mean ± SD of three independent experiments
Protocol: as §1

[7] = system: S. Typhimurium ATCC 14028; format: cell-based, Salmonella Typhimurium; details: Table 3, recombinant vs synthetic LG; mean ± SD of three independent experiments
Protocol: as §1

E. coli ATCC 25922 [8] = test: Cytoplasmic membrane depolarization, DiSC3-5; format: cell-based, Escherichia coli
Protocol: DiSC3-5 was used to measure the change in plasma membrane potential after peptide treatment. E. coli ATCC 25922 (OD600 = 0.05) was incubated with 0.4 µM DiSC3-5 and 100 mM K^+ in 5 mM HEPES buffer (containing 20 mM glucose, pH 7.4) until the fluorescence decreased stably. […] A fluorescence spectrophotometer (Infinite 200 pro, Tecan, China) was used to record the fluorescence values at an excitation light wavelength of 622 nm and emission light wavelength of 670 nm.

S. faecalis ATCC 29212 = format: cell-based, Streptococcus faecalis; details: Table 3, recombinant vs synthetic LG; mean ± SD of three independent experiments
Protocol: as §1

S. aureus ATCC 29213 = format: cell-based, Staphylococcus aureus; details: Table 3, recombinant vs synthetic LG; mean ± SD of three independent experiments
Protocol: as §1

S. aureus ATCC 25923 = format: cell-based, Staphylococcus aureus; details: Table 3, recombinant vs synthetic LG; mean ± SD of three independent experiments
Protocol: as §1

P. aeruginosa ATCC 27853 = format: cell-based, Pseudomonas aeruginosa; details: Table 3, recombinant vs synthetic LG; mean ± SD of three independent experiments
Protocol: as §1

“FKRIVQRIKRFLRGGGGSFKRIVQRIKRFLR [rLG, recombinant LG expressed in P. pastoris as 6 × His-SUMO-LG and released by SUMO protease]” was tested, and the “MIC, Control” value (E. coli ATCC 25922 [1]) was 2 µM, the “hemolysis (blood cells destroyed)” value (human red blood cells) was “approximately 23%” and the MIC (E. coli ATCC 25922 [2]) was 1.77 ± 0.19 µM. For the same sequence, the MIC (E. coli ATCC 078) was 1.22 ± 0.19 µM, the “internal morphology by TEM” value (E. coli ATCC 25922 [3]) was “the membrane of E. coli was destroyed, and the cell contents flowed out” and the “ability to damage or destroy the bacterial cell wall (NPN fluorescence)” value (E. coli ATCC 25922 [4]) was “better than that of melittin”. The MIC [5] was 1.89 ± 0.11 µM, the “MIC under physiological salt concentration, FeCl3” value (E. coli ATCC 25922 [6]; 4 µM FeCl3) was 2 µM and the “MIC under physiological salt concentration, NH4Cl” value (E. coli ATCC 25922 [6]; 6 µM NH4Cl) was 2 µM. For the same sequence, the “MIC under physiological salt concentration, ZnCl2” value (E. coli ATCC 25922 [6]; 8 µM ZnCl2) was 2 µM, the “MIC under physiological salt concentration, MgCl2” value (E. coli ATCC 25922 [6]; 1 mM MgCl2) was 4 µM and the “MIC under physiological salt concentration, CaCl2” value (E. coli ATCC 25922 [6]; 2 mM CaCl2) was over 32 µM. The “MIC under physiological salt concentration, KCl” value (E. coli ATCC 25922 [6]; 4.5 mM KCl) was 2 µM, the “MIC under physiological salt concentration, NaCl” value (E. coli ATCC 25922 [6]; 150 mM NaCl) was 2 µM and the “MIC under physiological salt concentration, GM” value (E. coli ATCC 25922 [6]; geometric mean of the MIC values in the seven salt solutions) was 3.62 µM. The “MIC under physiological salt concentration, Fold” value (E. coli ATCC 25922 [6]; increase of the MIC value (GM in salts) over the control without salts) was 1.81, the MIC (S. Typhimurium C 7731) was 1.33 ± 0.25 µM and the MIC [7] was 3.78 ± 0.44 µM. For the same sequence, the “plasma membrane potential (DiSC3-5 fluorescence intensity)” value (E. coli ATCC 25922 [8]; lowest tested concentration (1 µM)) was “caused a rapid increase in fluorescence intensity”, the “damage to plasma membrane potential compared with melittin (DiSC3-5)” value (E. coli ATCC 25922 [8]; rLG compared with 16 µM melittin) was “stronger than that of 16 µM melittin” and the MIC (S. faecalis ATCC 29212) was 1.89 ± 0.11 µM. For the same sequence, the MIC (S. aureus ATCC 29213) was 2.00 ± 0.00 µM, the MIC (S. aureus ATCC 25923) was 4.44 ± 1.78 µM and the MIC (P. aeruginosa ATCC 27853) was 4.44 ± 1.78 µM.
